Assay: Solubility Test with polysorbate 80 in water
Format: physicochemical
Conditions: room temperature and 40° C.
Procedure: In order to formulate a drug which is hardly soluble in water in an ophthalmic solution, it is necessary to devise to dissolve the drug in water. Since the nonionic surfactant acts as the solubilizing agent, the following solubility tests were performed in order to make sure of its required amount.
Test method: The present compound having a concentration exceeding solubility and polysorbate 80 were added to 10 ml of water, the mixtures were stirred at 5° C., room temperature and 40° C. for 24 hours respectively and then centrifuged at 20,000 rpm, and concentrations of the present compound contained in the supernatants were measured by the HPLC method. […] The “%” in the FIGURE is % by weight.

CC(C)OC(=O)CCC/C=C\C[C@@H]1[C@@H](/C=C/C(F)(F)COc2ccccc2)[C@H](O)C[C@@H]1O [the present compound, 16-Phenoxy-15-deoxy-15,15-difluoro-17,18,19,20-tetranorprostaglandin F2α isopropyl ester]
Water-solubility of the present compound versus temperature (5° C., with polysorbate 80 (FIG. 1)): at low temperatures is higher than that at high temperatures | solubility of the present compound versus amount of polysorbate 80 (water, stirred 24 hours at 5° C., supernatant by HPLC (FIG. 1)): increases depending on amounts of polysorbate 80

Reference: US20180353518A1, “OPHTHALMIC SOLUTIONS” (Santen Pharmaceutical Co., LTD., priority 2000, published 2018)
